Like-named read-outs stand apart in the source and are kept apart here.
Tests used:
[1] = tested on: neonatal retina; assay: Dose finding: physiological retinal vascular development in pups; conditions: i.p. injection of pups, Nin every third day, not before P5
[2] = target: T1, VEGFR2 (Mus musculus, UniProt P35918); assay: phospho-VEGFR2 in liver ECs and retina of tBMP9/10ib mice; format: in vivo
T1 construct: protein homogenates of liver ECs isolated from tBMP9/10ib mice; from tissue; host or cells: liver endothelial cells and retina of tBMP9/10ib mice
T1 sequence (P35918 20-1345): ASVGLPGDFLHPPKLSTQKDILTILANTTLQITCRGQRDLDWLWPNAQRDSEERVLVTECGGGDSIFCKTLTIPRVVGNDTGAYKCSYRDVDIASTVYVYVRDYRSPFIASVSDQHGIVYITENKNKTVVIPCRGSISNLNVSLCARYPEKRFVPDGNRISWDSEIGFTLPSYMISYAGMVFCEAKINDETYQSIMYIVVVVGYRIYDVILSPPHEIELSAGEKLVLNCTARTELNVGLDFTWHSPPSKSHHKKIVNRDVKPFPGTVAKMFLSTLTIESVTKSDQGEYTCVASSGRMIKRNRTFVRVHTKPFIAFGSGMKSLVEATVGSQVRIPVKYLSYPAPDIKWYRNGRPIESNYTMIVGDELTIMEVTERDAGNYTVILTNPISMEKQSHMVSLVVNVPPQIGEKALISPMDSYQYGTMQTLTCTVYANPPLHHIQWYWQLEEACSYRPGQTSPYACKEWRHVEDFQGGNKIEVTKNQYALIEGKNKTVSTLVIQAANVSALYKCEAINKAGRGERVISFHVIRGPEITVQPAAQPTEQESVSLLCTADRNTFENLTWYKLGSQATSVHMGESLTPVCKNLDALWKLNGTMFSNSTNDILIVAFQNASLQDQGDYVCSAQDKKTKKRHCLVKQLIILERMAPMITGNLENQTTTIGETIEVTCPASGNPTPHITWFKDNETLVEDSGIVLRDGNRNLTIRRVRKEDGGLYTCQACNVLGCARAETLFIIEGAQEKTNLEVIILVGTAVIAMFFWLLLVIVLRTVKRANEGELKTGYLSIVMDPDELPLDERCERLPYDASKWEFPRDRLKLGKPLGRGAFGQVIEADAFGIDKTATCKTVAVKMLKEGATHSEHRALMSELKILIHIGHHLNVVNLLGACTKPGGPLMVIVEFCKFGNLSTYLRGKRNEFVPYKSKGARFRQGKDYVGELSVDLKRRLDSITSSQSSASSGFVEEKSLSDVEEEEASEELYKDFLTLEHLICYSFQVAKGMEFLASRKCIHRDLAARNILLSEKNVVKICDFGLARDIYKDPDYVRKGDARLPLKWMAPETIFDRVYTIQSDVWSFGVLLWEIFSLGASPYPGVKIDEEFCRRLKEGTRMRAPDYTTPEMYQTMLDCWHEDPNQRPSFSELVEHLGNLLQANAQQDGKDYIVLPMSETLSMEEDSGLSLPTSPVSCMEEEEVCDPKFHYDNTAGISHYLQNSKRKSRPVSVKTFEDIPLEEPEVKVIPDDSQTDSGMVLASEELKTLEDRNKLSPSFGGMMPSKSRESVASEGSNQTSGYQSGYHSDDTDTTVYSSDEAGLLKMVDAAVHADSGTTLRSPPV

[3] = target: T2, VEGFR2 (Homo sapiens, UniProt P35968); assay: VEGF-induced VEGFR2 activation in primary ECs; format: cell-based
T2 construct: endogenous in cells; host or cells: primary ECs
T2 sequence (P35968 20-1356, species assumed): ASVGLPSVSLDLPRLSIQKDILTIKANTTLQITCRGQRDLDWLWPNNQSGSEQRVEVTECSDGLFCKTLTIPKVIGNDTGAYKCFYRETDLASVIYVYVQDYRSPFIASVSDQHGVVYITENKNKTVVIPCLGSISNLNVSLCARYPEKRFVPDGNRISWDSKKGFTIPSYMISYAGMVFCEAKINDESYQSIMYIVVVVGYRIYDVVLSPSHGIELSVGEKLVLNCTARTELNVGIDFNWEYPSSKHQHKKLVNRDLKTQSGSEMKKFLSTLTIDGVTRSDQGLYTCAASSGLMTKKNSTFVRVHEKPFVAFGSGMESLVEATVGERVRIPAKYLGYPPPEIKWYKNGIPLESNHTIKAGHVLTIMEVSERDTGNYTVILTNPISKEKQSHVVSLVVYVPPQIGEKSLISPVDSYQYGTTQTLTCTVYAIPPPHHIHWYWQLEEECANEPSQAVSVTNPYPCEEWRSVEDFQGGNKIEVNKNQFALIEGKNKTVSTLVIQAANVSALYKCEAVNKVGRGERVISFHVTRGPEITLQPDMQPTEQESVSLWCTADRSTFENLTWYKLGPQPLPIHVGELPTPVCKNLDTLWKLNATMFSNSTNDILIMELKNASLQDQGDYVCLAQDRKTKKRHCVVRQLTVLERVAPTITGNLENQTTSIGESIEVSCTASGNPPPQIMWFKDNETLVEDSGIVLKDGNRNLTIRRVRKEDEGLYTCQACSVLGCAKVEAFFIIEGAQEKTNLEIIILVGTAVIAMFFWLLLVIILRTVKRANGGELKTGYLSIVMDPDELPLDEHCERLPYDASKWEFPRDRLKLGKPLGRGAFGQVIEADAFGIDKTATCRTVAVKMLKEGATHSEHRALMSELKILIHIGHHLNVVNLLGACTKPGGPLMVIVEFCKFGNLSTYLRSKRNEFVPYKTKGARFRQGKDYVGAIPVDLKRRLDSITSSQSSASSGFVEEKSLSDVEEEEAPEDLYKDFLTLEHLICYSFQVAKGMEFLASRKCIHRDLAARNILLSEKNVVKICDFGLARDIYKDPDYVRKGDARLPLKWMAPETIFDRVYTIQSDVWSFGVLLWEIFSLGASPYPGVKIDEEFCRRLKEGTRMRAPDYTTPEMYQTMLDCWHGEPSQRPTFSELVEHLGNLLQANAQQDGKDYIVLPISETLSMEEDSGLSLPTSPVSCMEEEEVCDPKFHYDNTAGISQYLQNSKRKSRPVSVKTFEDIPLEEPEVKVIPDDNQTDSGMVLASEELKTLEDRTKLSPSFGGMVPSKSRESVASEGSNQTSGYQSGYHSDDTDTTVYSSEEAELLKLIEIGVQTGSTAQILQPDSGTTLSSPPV

[4] = LC-MS serum drug concentrations in injected pups
[5] = tested on: tBMP9/10ib mice; assay: Prevention of retinal vascular pathology in tBMP9/10ib HHT mice (treatment P3-P5, analysis at P6)
Method: Mouse pups were administered preventively and daily with Siro from P3 to P5 (0.5 mg/kg, i.p.) and with Nin at P5 (0.3 mg/kg, i.p.). Mice were then analyzed at P6, a time point at which retinal vessel dilation, hypervascularization, and AVMs can readily be observed and quantified in this model.

[6] = mouse, in vivo
[7] = tested on: tBMP9/10ib mice; conditions: 0.5 mg/kg, P3-P5, i.p.; Ruiz et al., 2017; cited from earlier work
[8] = tBMP9/10ib retinas at P6, Siro 0.5 mg/kg i.p. P3-P5, Nin 0.3 mg/kg i.p. at P5

average serum concentration [6] [nM] | SMILES | highest dose that did not affect normal vascular development [1] [mg/kg] | elevation of activated phospho-VEGFR2 (p-VEGFR2) [2] | VEGF-induced VEGFR2 activation [3] | average serum concentration ([4]; injected P6 pups, Siro 0.5 mg/kg i.p., Nin 0.3 mg/kg i.p.) [nM] | average serum concentration ([4]; pup serum at P9, three additional days of treatment) [nM] | vascular pathology ([5]; HHT mice, sirolimus 0.5 mg/kg/day, nintedanib 0.3 mg/kg/day, alone or combined) | AVM diameter [5, 8] | increase in density of the vascular plexus [5, 8] | vein dilation [5, 8] | AVM number ([5]; tBMP9/10ib retinas at P6, Siro 0.5 mg/kg i.p. P3-P5, Nin 0.3 mg/kg i.p. at P5, mean) | increase in density of the vascular plexus [7] | vein dilation [7]
 | COC(=O)c1ccc2c(c1)NC(=O)/C2=C(\Nc1ccc(N(C)C(=O)CN2CCN(C)CC2)cc1)c1ccccc1 [Nin, nintedanib] | 0.3 | significantly inhibited | fully inhibited | 5.3 | 24.7 | moderate-to-negligible effect | failed to reduce | failed to reduce | failed to reduce | failed to reduce |  | 
22.6 | CO[C@H]1C[C@@H]2CC[C@@H](C)[C@@](O)(O2)C(=O)C(=O)N2CCCC[C@H]2C(=O)O[C@H]([C@H](C)C[C@@H]2CC[C@@H](O)[C@H](OC)C2)CC(=O)[C@H](C)/C=C(\C)[C@@H](O)[C@@H](OC)C(=O)[C@H](C)C[C@H](C)/C=C/C=C/C=C/1C [Siro, sirolimus] | 0.5 |  |  |  |  |  |  |  |  |  |  | 
 | C=CC[C@@H]1/C=C(\C)C[C@H](C)C[C@H](OC)[C@H]2O[C@@](O)(C(=O)C(=O)N3CCCC[C@H]3C(=O)O[C@H](/C(C)=C/[C@@H]3CC[C@@H](O)[C@H](OC)C3)[C@H](C)[C@@H](O)CC1=O)[C@H](C)C[C@@H]2OC [Tac, tacrolimus] |  |  |  |  |  |  |  |  |  |  | prevented | prevented
